Results from patent US7205314B2, “Compounds for the treatment of dementia related diseases” (AstraZeneca AB, priority 2001, dated 2007).

melting point: 214 to 219 °C
Compound: COCCOc1ccc2c(C3C(=O)Nc4ccc(C#N)cc43)nccc2c1 (stereo not shown) [Example 3, 3-[6-(2-Methoxyethoxy)isoquinolin-1-yl]-2-oxo-2,3-dihydro-1H-indole-5-carbonitrile]
